Read-outs that look alike come from different tables or passages of the source.
Columns and labels:
HepG2 cells = test: HepG2 cytotoxicity assay (Cell Titer Glo 2.0); format: cell-based, Homo sapiens; settings: 72 h
adult S. mansoni [1] = test: Dose-response of compounds on adult worms (attachment to culture substrate, EC50); format: cell-based, Schistosoma mansoni
Description: (§1) DMSO). All selected compounds were obtained from commercial vendors (Medchemexpress, Selleck Chemicals, Sigma-Aldrich, ApexBio, Tocris, Santa Cruz Biotechnology, and Cayman Chemical Company) (Dataset S4) with […]
the activity of the desired compounds. Roughly 5 adult worm pairs were placed in 3mL Basch medium in a 12-well culture vessel, and incubated at 37° C, 5% CO2 for the length of the experiment. Compound was administered at D0, D1, and D2, media and drug refreshed every 24 hr. Worms were then allowed to remain in culture until D5, where a final assessment of worm attachment to tissue culture substate was made by light microscopy.
Observations on movement and morphology were also recorded. A negative control (0.1% DMSO) and positive control (PZQ; 10 µM in 0.1% DMSO) were included in each experiment, and each experiment was repeated in triplicate for validation. For compounds that caused complete detachment in replicate experiments, the treatment was expanded to three concentrations (10 µM, 5 µM, and 1 µM) following the same treatment schedule and controls as detailed above.
Each titration experiment was performed in triplicate according to the treatment regimen described above, using DMSO and PZQ as appropriate controls. Morphologies and motility were assessed by light microscopy, and dose-response curves were calculated using the primary readout of parasite attachment to tissue culture substrate in GraphPad Prism.
(§2) For drug treatment studies, 10 male adult worms (single or paired with females) were supplemented with either 0.1% DMSO or inhibitor (0.1% DMSO final). For all experiments assessing on-target effects of potential parasite […]
(§3) After 48 hr, male parasites were separated […]
(§4) further processing. Male worm samples were homogenized with a pestle in 50 µL lysis buffer containing 2X […]
(Roche, cOmplete Mini, EDTA-free Tablets) and 10 mM DTT. The lysates were then sonicated on high for 5 min (30 sec on, 30 sec off) using a Bioruptor UCD-200. […]
Compounds were tested from 100 μM – 1 nM. Values were calculated using Prism.

[2] = tested on: K48 polyubiquitinated proteins in adult S. mansoni; test: Western blot of K48 polyubiquitinated proteins in lysate of drug-treated worms; format: cell-based, Schistosoma mansoni; settings: adult worm lysate after 48 h of treatment
Description: as §1
the activity of the desired compounds. Roughly 5 adult worm pairs were placed in 3mL Basch medium in a 12-well culture vessel, and incubated at 37° C, 5% CO2 for the length of the experiment. […]
as §2, §3, §4
(Roche, cOmplete Mini, EDTA-free Tablets) and 10 mM DTT. The lysates were then sonicated on high for 5 min (30 sec on, 30 sec off) using a Bioruptor UCD-200. Lysates were centrifuged for 5 min at 10,000 g to remove […]
debris. Total protein was measured using the Detergent Compatible Bradford Assay (Pierce). 50 µg of protein samples denatured in SDS Sample buffer (95°C for 5 min) were separated on a Bio-Rad 4-20% TGX Stain-Free gel along with Precision Plus Protein Dual Color Standards (Bio-Rad) as a marker. Proteins were then transferred to a nitrocellulose membrane (Bio-Rad). The membrane was blocked in a 1:5 solution of Li-Cor Odyssey Blocking buffer in PBST for 1 hr before being immunoblotted overnight at 4°C with 1:500 K48-linkage Specific […]
(1:10,000) (Developmental Studies Hybridoma Bank, JLA20) diluted in a 1:5 solution of Li-Cor Odyssey Blocking buffer in PBST. The membrane was washed 3x in TBST and then incubated in 1:5 Li-Cor Odyssey […]
in TBST 3x before being imaged on a LiCor Odyssey Infrared Imager. […]

adult S. mansoni [3] = tested on: adult S. mansoni; design: method as in PMID 32973031; settings: adult parasites; cited from earlier work
[4] = target: S. mansoni p97 (Smp_018240) (Schistosoma mansoni, UniProt G4M0P7); format: biochemical; settings: recombinant full-length enzyme, Kinase-Glo, 100 μM to 1 nM
Description: Evaluation of p97’s ATPase activity and compound potency
For manual ATP consumption assays, 1 µM p97 was incubated with 1% DMSO or inhibitor (1% DMSO final) in assay buffer [50 mM Tris (pH 7.5), 20 mM MgCl2, 1 mM EDTA, 0.5 mM tris(2-carboxyethyl)phosphine (TCEP)] for 5 minutes prior to the addition of 20 µM ATP in a 384-well plate for a total reaction volume of 10 µL, and a final concentration of 500nM enzyme and 10 µM ATP. The reaction was allowed to proceed for 50 minutes at room temperature before adding equivalent volume of Kinase-Glo Plus reagent (Promega), and a further incubation of 10 minutes in the dark. Luminescence was read using a BioTek Synergy 2 plate reader […]
1 μM, 500 nM, 100 nM, 50 nM, 10 nM, 5 nM, 1 nM, and 0 nM) in triplicate, maintaining a concentration of 1% […]
were calculated using GraphPad Prism. […]

Sequence of S. mansoni p97 (Smp_018240) (G4M0P7 entry or part of it): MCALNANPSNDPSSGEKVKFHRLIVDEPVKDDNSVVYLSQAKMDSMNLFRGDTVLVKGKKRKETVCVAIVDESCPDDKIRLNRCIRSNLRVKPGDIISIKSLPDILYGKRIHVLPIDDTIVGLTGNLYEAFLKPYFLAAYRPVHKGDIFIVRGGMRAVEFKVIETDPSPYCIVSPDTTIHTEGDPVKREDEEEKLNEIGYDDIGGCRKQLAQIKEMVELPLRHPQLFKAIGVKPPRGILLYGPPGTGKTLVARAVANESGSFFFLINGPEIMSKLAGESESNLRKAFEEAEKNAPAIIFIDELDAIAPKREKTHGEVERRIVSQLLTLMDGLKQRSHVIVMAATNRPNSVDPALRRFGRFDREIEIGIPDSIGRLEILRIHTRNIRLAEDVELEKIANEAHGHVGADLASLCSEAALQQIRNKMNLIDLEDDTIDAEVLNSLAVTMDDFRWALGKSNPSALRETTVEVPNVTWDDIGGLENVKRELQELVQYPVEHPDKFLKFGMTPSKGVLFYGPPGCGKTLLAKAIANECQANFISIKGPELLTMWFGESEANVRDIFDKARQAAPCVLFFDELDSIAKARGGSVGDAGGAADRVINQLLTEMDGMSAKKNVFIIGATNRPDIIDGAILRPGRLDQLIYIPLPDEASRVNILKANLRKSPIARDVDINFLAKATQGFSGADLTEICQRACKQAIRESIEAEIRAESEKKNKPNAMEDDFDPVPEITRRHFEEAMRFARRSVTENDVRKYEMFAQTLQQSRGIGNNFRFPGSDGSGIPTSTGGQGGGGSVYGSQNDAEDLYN

Compound: Cc1cc2c(C(N)=O)cccc2n1-c1nc2c(c(NCc3ccccc3)n1)COCC2 [CB-5083]
- GI50 (HepG2 cells; 50% growth inhibition normalized to time = 0): 310 nM
- IC50 (HepG2 cells; 50% growth inhibition relative to control): 410 nM
- EC50 (adult S. mansoni [1]; fraction of worms attached after 72 h drug treatment, refreshed every 24 h, kept until D5, 50 μM - 10 nM, read-out: S. mansoni EC50 (μM) on adult parasites): 0.36 µM
- accumulation of K48 polyubiquitinated proteins by western blot [2]: accumulation of proteins targeted for proteasome-mediated degradation
- concentration leading to parasite death in vitro (adult S. mansoni [3]): submicromolar concentrations

Compound: Cc1cc(OCc2nnc(SC3CCCC3)n2-c2cccnc2)ccc1-c1ccc(S(C)(=O)=O)cc1 [NMS-873]
- accumulation of K48 polyubiquitinated proteins by western blot [2]: accumulation of proteins targeted for proteasome-mediated degradation
- concentration leading to parasite death in vitro (adult S. mansoni [3]): submicromolar concentrations
- IC50 [4]: 230 ± 75 nM

Compound: AGI-41998
- EC50 (adult S. mansoni [1]; adult worms in vitro, tested 50 μM to 10 nM, readout attachment to culture substrate, read-out: EC50 of commercial inhibitors of human orthologs on adult parasites): 0.71 µM

— article PMC12415213, “A genome-scale drug discovery pipeline uncovers therapeutic targets and a unique p97 allosteric binding site in Schistosoma mansoni” (Proceedings of the National Academy of Sciences of the …, 2025)
